Laboratory results reported in article PMC8050080, “Cannabis sativa terpenes are cannabimimetic and selectively enhance cannabinoid activity” (Scientific Reports, 2021).

Key:
[1] = tested on: WT CHO cells; test: ERK phosphorylation (Western) in WT CHO cells; type: cell-based; details: for ERK phosphorylation in WT CHO cells: 500 μM terpene or 10 μM WIN55,212-2, 5 min, Fig. 7B; for rimonabant sensitivity of ERK activation in WT CHO cells: 500 μM terpene after 10 μM rimonabant, Fig. 7C
Method: WT-CHO cells were obtained from ATCC (#CCL-61). CHO cells stably expressing the human CB1 receptor were obtained from PerkinElmer (#ES-110-C) and utilized for western blots (CB1-CHO-C2) or binding assays (CB1-CHO-C3). HitHunter (CB1-CHO-cAMP) and PathHunter (CB-CHO-βarr2) assays were performed on respective CB1-CHO lines, and were a kind gift from Dr. Robert Laprairie[44]. CHO cells stably expressing cloned CB2 (CB2-CHO) were produced by electroporation with the human CB2 N-3xHA tag cDNA (GeneCopoeia). A stable expressing population was selected for with 500 μg/mL G418. CHO cells stably expressing the human mu opioid receptor were obtained from PerkinElmer (#ES-542-C). All cells were grown on 10 cm dishes in DMEM/F-12 50/50 mix w/ L-glutamine and 15 mM HEPES (Corning) containing 10% heat-inactivated fetal bovine serum, 100 units/mL penicillin, 100 units/mL streptomycin, and 400 μg/mL G418 (CB1-CHO-C2, CB1-CHO-C3, CB2-CHO, MOR-CHO); 800 μg/mL G418 (CB1-CHO-cAMP); 800 μg/mL G418 and 300 μg/mL hygromycin B (CB1-CHO-βarr2). WT CHO were grown as stated above without selection antibiotic. Cells were incubated in a humidified incubator at 37 °C with 5% CO2 and were sub-cultured every 2–3 days.
Cells were plated in 6-well plates 24 h prior to the start of the experiments. Cells were serum starved for 1 h then treated for 5 min with compound. In antagonist experiments, cells were pretreated for 5 min before agonist treatment for 5 min. Media was then aspirated, cells were placed on ice, washed with ice-cold PBS once, and lysis buffer (20 mM Tris–HCl, pH 7.4, 150 mM NaCl, 2 mM EDTA, 0.1% SDS, 1% Nonidet P-40, 0.25% deoxycholate, 1 mM sodium orthovanadate, 1 mM PMSF, 1 mM sodium fluoride, and a protease inhibitor cocktail (EMD Millipore)), was added. Cells were scraped and collected. Lysates were vortexed then centrifuged at 13 k rpm at 4 °C for 10 min. Lysates were then processed for Western blots or stored at − 80 °C.
Cell lysate protein was quantified with a modified BCA protein assay using manufacturers protocol (Bio-Rad). Samples (20–30 μg) were ran on precast gels (10% Bis–Tris, Bolt brand, from ThermoFisher). Gels were wet-transferred to nitrocellulose membranes at 30 V for at least 60 min at 4 °C. Blots were blocked with 5% non-fat dry milk in TBS for 30 min, washed 3 × for 5 min with TBS + 0.1% Tween-20 (TBST), and incubated with primary antibody overnight at 4 °C. Primary antibody: pERK and tERK (Cell Signaling) at 1:1000 dilution in 5% BSA in TBST. Blots were then washed 3 × with TBST then incubated with secondary antibodies for 90 min at room temperature. Secondary antibodies: Goat anti-Rabbit 800 W and Goat anti-Mouse 680 diluted at 1:10,000 and 1:20,000 (Licor), respectively, in 5% non-fat milk in TBST. Blots were washed 3X with TBST and 1 × with TBS, then imaged on a Licor Odyssey Fc or Azure Sapphire. Bands were analyzed using Image-J and reported as pERK/tERK normalized to the standard, or simply as pERK/tERK.

[2] = tested on: male and female CD-1 mice; test: Tail flick thermal latency test (antinociception); type: in vivo; details: for tail flick antinociception (efficacy in words): terpenes 50–200 mg/kg i.p. (β-Caryophyllene 100 mg/kg), WIN55,212-2 up to 10 mg/kg, over 2 h
Method: Antinociception was tested using the tail flick thermal latency test. Mice were baselined by gently restraining the animal and lowering the distal portion of the tail into a water bath set to 52 °C or 47 °C where stated, and the latency to flick the tail recorded with a stopwatch, with a 10 s cutoff. Mice were then injected with compounds intraperitoneally (i.p.). Thermal latency was then assessed over a time course of 2 h, or at a single time-point as noted. […] For assays using terpene/WIN55,212-2 co-treatment, WIN55,212-2 was co-administered with terpene in the same solution.

[3] = tested on: male and female CD-1 mice; test: Open field test (hypolocomotion); details: for mobile time of terpene combined with WIN55,212-2: 200 mg/kg terpene + 5.6 mg/kg WIN55,212-2, Fig. 5; for locomotor activity vs baseline / distance traveled and mobile time, experiment without baseline recording: 200 mg/kg terpene or 5.6 mg/kg WIN55,212-2 i.p.; for locomotor activity vs baseline: compared to baseline values, Fig. S2C,D, confounded by habituation; for distance traveled and mobile time, experiment without baseline recording: vs Vehicle, Fig. S3A,B
Method: All experiments were performed on male and female CD-1 (a.k.a. ICR) mice obtained from Charles River in age-matched cohorts of 5–6 weeks of age. […] The animals were maintained in an AAALAC-accredited vivarium at the University of Arizona in temperature and humidity-controlled rooms on a 12-h light/dark cycle. Standard chow and water were available ad libitum. […] Mice were randomized to treatment group by randomization of mice to cages upon arrival, and block random assignment of cages to treatment group. The experimenter was blinded to treatment group by the delivery of coded drug vials. The groups were not decoded until all data had been acquired.
The open field test was used to determine potential hypolocomotive properties induced by terpene and cannabinoid treatment. The open field box was a white box with an open top and black floor. The tracking area was 30 cm × 28 cm. Mice were baselined by placing the mouse in the center of the box and recording from a video camera ~ 1.5 m above for a period of 5 min. Mice were then injected with compound and placed back in the open field box 10–15 min post-injection. In follow-up experiments, mice were not baselined, injected with compound, and placed in the open field box from 10 to 15 min. The total distance traveled and mobile time of mice were analyzed using AnyMaze software.

[4] = tested on: male and female CD-1 mice; test: Hypothermia (core temperature, rectal thermometer); type: in vivo; details: for hypothermia vs baseline: 30 min after i.p. 200 mg/kg terpene or 5.6 mg/kg WIN55,212-2, Fig. S2A; for effect of rimonabant pretreatment on hypothermia: 10 mg/kg rimonabant, 200 mg/kg terpene or 5.6 mg/kg WIN55,212-2, Fig. 3, S4C
Method: Changes in core temperature were assessed using a lubricated rectal thermometer placed 1.0 cm into the mouse rectum. Temperature was assessed before treatment and 30 min post-treatment.

[5] = target: CB1 (Homo sapiens, UniProt P21554); test: biochemical; type: binding; details: CB1-CHO membranes, Fig. 8A
Chain of CB1 (P21554 whole entry): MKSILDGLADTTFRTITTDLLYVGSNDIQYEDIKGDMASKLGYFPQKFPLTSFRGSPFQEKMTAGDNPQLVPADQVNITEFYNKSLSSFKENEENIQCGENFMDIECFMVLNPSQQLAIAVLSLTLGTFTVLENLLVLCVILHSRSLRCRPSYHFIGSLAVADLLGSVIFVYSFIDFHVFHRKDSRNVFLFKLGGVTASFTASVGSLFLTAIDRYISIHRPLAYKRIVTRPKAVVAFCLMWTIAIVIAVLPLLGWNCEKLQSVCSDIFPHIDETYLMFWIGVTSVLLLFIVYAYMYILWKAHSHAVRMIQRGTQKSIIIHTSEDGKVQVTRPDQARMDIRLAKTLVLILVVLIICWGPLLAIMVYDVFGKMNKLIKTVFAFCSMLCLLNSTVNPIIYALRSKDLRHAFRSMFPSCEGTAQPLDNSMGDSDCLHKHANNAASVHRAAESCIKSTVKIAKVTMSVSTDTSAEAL

[6] = target: T1, human mu opioid receptor (Homo sapiens, UniProt P35372); type: cell-based; details: 500 μM terpene or 10 μM morphine, 5 min, Fig. S13A
T1 construct: host or cells: CHO (MOR-CHO)
T1 sequence (P35372 whole entry): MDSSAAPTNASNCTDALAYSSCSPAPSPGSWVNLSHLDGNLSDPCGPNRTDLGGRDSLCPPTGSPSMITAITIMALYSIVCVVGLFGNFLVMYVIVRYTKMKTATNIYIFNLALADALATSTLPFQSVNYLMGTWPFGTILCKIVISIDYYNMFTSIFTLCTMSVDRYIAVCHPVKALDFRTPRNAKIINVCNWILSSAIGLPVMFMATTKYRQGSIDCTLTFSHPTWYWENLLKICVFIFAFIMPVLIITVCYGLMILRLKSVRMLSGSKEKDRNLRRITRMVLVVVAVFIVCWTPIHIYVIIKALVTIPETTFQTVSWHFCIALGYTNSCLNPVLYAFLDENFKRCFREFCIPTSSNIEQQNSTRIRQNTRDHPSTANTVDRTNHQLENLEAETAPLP
Method: Cells were plated in 6-well plates 24 h prior to the start of the experiments. Cells were serum starved for 1 h then treated for 5 min with compound. In antagonist experiments, cells were pretreated for 5 min before agonist treatment for 5 min. […] Cells were scraped and collected. Lysates were vortexed then centrifuged at 13 k rpm at 4 °C for 10 min. Lysates were then processed for Western blots or stored at − 80 °C.
CHO cells were serum starved for 1 hr, then treated with Vehicle, 10 μM morphine, or 500
μM terpene for 5 min. ERK was quantitated and reported as above. Data expressed as the
vs. Vehicle group by 1 Way ANOVA with Dunnett’s post hoc test. B) MOR-CHO cells
serum starved for 1 hr, then pre-treated with Vehicle or 10 μM naloxone for 10 min, then
treated with Vehicle, 10 μM morphine, or 500 μM terpene for 5 min. ERK quantitated,
reported, and normalized as in A (n=3 independent experiments). *, **** = p < 0.05,
0.0001 vs. terpene-alone group for each set by 1 Way ANOVA with Sidak’s post hoc test
(set up as pairwise comparisons between terpene and terpene + naloxone for each set). For
both, representative blots are shown below each graph.

[7] = tested on: male and female CD-1 mice; test: Catalepsy ring test; type: in vivo; details: for effect of istradefyllene pretreatment on catalepsy response: 10 mg/kg istradefyllene; for effect of istradefyllene pretreatment on catalepsy response / effect of rimonabant pretreatment on catalepsy response: 200 mg/kg terpene, Fig. 4; for effect of rimonabant pretreatment on catalepsy response: 10 mg/kg rimonabant; for catalepsy vs baseline: 15 min after i.p. 200 mg/kg terpene or 5.6 mg/kg WIN55,212-2, Fig. S2B; for catalepsy of terpene combined with WIN55,212-2: 200 mg/kg terpene + 5.6 mg/kg WIN55,212-2, Fig. 4
Method: Potential induction of catalepsy was assessed using the ring test as described. Mice were baselined, injected with compound, and then assessed with the ring test at 15 min post-injection. Data was represented as the percentage (%) of time in a “cataleptic” immobile state over the 5 min observation period.

[8] = tested on: male and female CD-1 mice; test: Cannabinoid tetrad of behaviors (antinociception, hypolocomotion, catalepsy, hypothermia); type: in vivo; details: 5.6 mg/kg WIN55,212-2 after 10 mg/kg rimonabant i.p., Fig. S4
Excerpt: Our first set of experiments sought to determine whether selected terpenes/terpenoids (α-Humulene, β-Pinene, Linalool [terpenoid], Geraniol [terpenoid], and β-Caryophyllene as a putative cannabinoid receptor type 2 [CB2] agonist control) had activity in the cannabinoid tetrad of behaviors mediated by the CB1 receptor: antinociception, hypolocomotion, catalepsy, and hypothermia. These terpenes were selected based on their quantities in Cannabis sativa, with α-Humulene, β-Pinene, Linalool, and β-Caryophyllene all being found in higher quantities and Geraniol in lower to underdetermined quantities. Although it is not clear if geraniol is present in higher quantities, we nonetheless chose this ligand due to its reported anti-nociceptive activity (e.g.[22]). Terpenes were administered at several doses (50–200 mg/kg) i.p. and assessed in the tail flick assay in male and female CD-1 mice. […]
Antinociception was tested using the tail flick thermal latency test. Mice were baselined by gently restraining the animal and lowering the distal portion of the tail into a water bath set to 52 °C or 47 °C where stated, and the latency to flick the tail recorded with a stopwatch, with a 10 s cutoff. […] Thermal latency was then assessed over a time course of 2 h, or at a single time-point as noted. […]
Potential induction of catalepsy was assessed using the ring test as described. […]

Compound | ERK phosphorylation in WT CHO cells [1] | tail flick antinociception (efficacy in words) ([2]; Fig. S1) | mobile time of terpene combined with WIN55,212-2 [3] | locomotor activity vs baseline [3] | distance traveled and mobile time, experiment without baseline recording [3] | hypothermia vs baseline [4] | competition for the orthosteric binding site against CP55,940 [5] | ERK stimulation in MOR-CHO cells [6] | effect of istradefyllene pretreatment on catalepsy response [7] | effect of rimonabant pretreatment on catalepsy response [7] | catalepsy vs baseline [7] | effect of rimonabant pretreatment on hypothermia [4] | rimonabant sensitivity of ERK activation in WT CHO cells [1] | catalepsy of terpene combined with WIN55,212-2 [7] | also measured
C=CC(C)(O)CCC=C(C)C (stereo not shown) [Linalool] | did not cause ERK phosphorylation | dose-dependent low efficacy | further decrease in mobile time | significant reductions in locomotor activity | reductions in distance traveled and mobile time | induced significant hypothermia | little to no competition | no response | partially blocked | small but significant reduction | significant increases in cataleptic behavior |  |  |  | effect of rimonabant pretreatment on tail flick antinociception ([2]; 200 mg/kg terpene i.p. after 10 mg/kg rimonabant, Fig. 2): fully blocked by rimonabant; tail flick, Linalool combined with WIN55,212-2, females ([2]; female mice, 200 mg/kg + 5.6 mg/kg WIN55,212-2, Fig. S8A): a delay in response and no potentiation over Linalool alone; tail flick, Linalool combined with WIN55,212-2, males ([2]; male mice, 200 mg/kg + 5.6 mg/kg WIN55,212-2, Fig. S8A): greater additive effects of combining both that occurred earlier in the time course; hypolocomotion, antagonist reversal, females ([3]; female mice, 200 mg/kg Linalool, Fig. S8B-C): istradefyllene reversal; hypolocomotion, antagonist reversal, males ([3]; male mice, 200 mg/kg Linalool, Fig. S8B-C): rimonabant reversal
Cc1c(C(=O)NN2CCCCC2)nn(-c2ccc(Cl)cc2Cl)c1-c1ccc(Cl)cc1 [Rimonabant, reference compound] |  |  |  |  |  |  |  |  |  |  |  |  |  |  | effect of rimonabant pretreatment on morphine-induced antinociception ([2]; 10 mg/kg rimonabant i.p., 5.6 mg/kg morphine, Fig. S5A,B): no significant effect; effect of rimonabant on baseline thermal latency ([2]; 10 mg/kg rimonabant, water bath 47 °C, 30 min, Fig. S5C): no significant effect
Cc1c(C(=O)c2cccc3ccccc23)c2cccc3c2n1[C@H](CN1CCOCC1)CO3 [WIN55,212-2, reference compound] | did not cause ERK phosphorylation | dose-dependent increases in thermal latency with greater efficacy than any of the tested compounds |  | significant reductions in locomotor activity | reductions in distance traveled and mobile time | induced significant hypothermia |  |  |  |  | significant increases in cataleptic behavior | only partially reversed |  |  | effect of rimonabant on tetrad behaviors induced by the agonist [8]: fully or partially reverse
CCn1c(=O)c2c(nc(/C=C/c3ccc(OC)c(OC)c3)n2C)n(CC)c1=O [istradefyllene, Istradefyllene, reference compound] |  |  |  |  |  |  |  |  |  |  |  |  |  |  | effect of istradefyllene alone on locomotion ([3]; 10 mg/kg i.p., open field after 10 min, Fig. S6B,C): hyperlocomotive effect; effect of istradefyllene alone on temperature ([4]; 10 mg/kg i.p., 30 min, Fig. S6A): small but significant hypothermic
C/C1=C\CC/C(C)=C/CC(C)(C)/C=C/C1 [α-Humulene] | activated ERK |  | further decrease in mobile time | significant reductions in locomotor activity | did not result in significant reductions | induced significant hypothermia | some competition and semi-biphasic properties | produced ERK stimulation | completely blocked | small but significant reduction | significant increases in cataleptic behavior | partially reverse | rimonabant-insensitive | additive effects | efficacy in the tail flick assay ([2]; terpene 50–200 mg/kg i.p., dose-dependent, Fig. S1): 40–50%; effect of istradefyllene pretreatment on hypothermia ([4]; 10 mg/kg istradefyllene, 200 mg/kg terpene, Fig. 3): partially reversed
C=C1CCC2CC1C2(C)C (stereo not drawn) [β-Pinene] | activated ERK | low efficacy but not in a dose-dependent manner | further decrease in mobile time | significant reductions in locomotor activity | reductions in distance traveled and mobile time | induced significant hypothermia | little to no competition | produced ERK stimulation | completely blocked | no impact | significant increases in cataleptic behavior |  | rimonabant-insensitive | additive effects | effect of istradefyllene pretreatment on mobile time ([3]; 10 mg/kg istradefyllene, 200 mg/kg terpene, Fig. 5): significant reversal; effect of istradefyllene pretreatment on distance traveled ([3]; 10 mg/kg istradefyllene, 200 mg/kg terpene, Fig. S7): istradefyllene reversal
